# Experiments:
# [1] = system: conscious telemetered dogs; assay: Systolic blood pressure lowering, oral administration to conscious telemetered dogs; assay type: in vivo; conditions: orally administered at 3 mpk
# Excerpt: Several examples were studied for systolic blood pressure lowering when orally administered to conscious telemetered dogs at 3 mpk (see Data Table 1).
# [2] = system: isolated rabbit thoracic aorta preparations; assay: Vessel relaxation in isolated rabbit thoracic aorta preparations; assay type: cell-based; conditions: Oryctolagus cuniculus; rabbit aortic rings precontracted with noradrenaline, functional endothelium
# Method: The ability of the compounds to induce vasorelaxation was tested in vitro in isolated rabbit thoracic aorta preparations (Wanstall J. C. et al., Br. J. Pharmacol., 134:463-472, 2001). Male New Zealand rabbits were anaesthetized with thiopental-Na (50 mg/kg, iv), sacrificed by exsanguinations and then the thorax was opened and the aorta dissected. Aortic ring preparations (4 mm in length) were set up in physiological salt solution (PSS) at 37° C. in small organ chambers (5 ml). The composition of PSS was (mM): NaCl 130, NaHCO3 14.9, KH2PO4 1.2, MgSO4 1.2, HEPES 10, CaCl2, ascorbic acid […] and glucose 1.1 (95% O2/5% CO2; pH 7.4). Each ring was mounted under 2 g passive tension. Isometric tension was recorded with a Grass transducer (Grass FT03) attached to a BIOPAC MP150 System. Preparations were allowed to equilibrate for 1 h, and then contracted submaximally with noradrenaline (NA, 1 μM) and, when the contraction was stable, acetylcholine (ACh, 10 μM) was added. A relaxant response to ACh indicated the presence of a functional endothelium. […] When a stable precontraction was reached, a cumulative concentration-response curve to either of the vasorelaxant agents was obtained in the presence of a functional endothelium. Each arterial ring was exposed to only one combination of inhibitor and vasorelaxant. […]
# Example 2 was evaluated for vessel relaxation.
EC50 [2] [µM],SMILES,"Approximate change in systolic blood pressure ([1]; 1-6 h, 3 mg/kg) [mm Hg]","Approximate change in systolic blood pressure ([1]; 6-12 h, 3 mg/kg) [mm Hg]","Approximate change in systolic blood pressure ([1]; 12-18 h, 3 mg/kg) [mm Hg]",Approximate change in systolic blood pressure ([1]; 1-6 h) [mm Hg],Approximate change in systolic blood pressure ([1]; 6-12 h) [mm Hg],Approximate change in systolic blood pressure ([1]; 12-18 h) [mm Hg]
–,"CCOc1nc2cccc(C(=O)OC(C)OC(=O)[C@@H]3C[C@H](OC)[C@@H](O[N+](=O)[O-])C3)c2n1Cc1ccc(-c2ccccc2-c2nnn[nH]2)cc1 (stereo partly drawn) [Example 2, D1, 1-({[(1R,3S,4S)-3-methoxy-4-(nitrooxy)cyclopentyl]carbonyl}oxy)ethyl 2-ethoxy-1-{[2′-(1H-tetrazol-5-yl)biphenyl-4-yl]methyl}-1H-benzimidazole-7-carboxylate]",−15,−11,−1,–,–,–
–,"CCCCC(=O)N(Cc1ccc(-c2ccccc2-c2nnn[nH]2)cc1)[C@H](C(=O)O[C@@H](C)OC(=O)[C@@H]1C[C@H](OC)[C@@H](O[N+](=O)[O-])C1)C(C)C [Example 5, (1S)-1-({[(1R,3S,4S)-3-methoxy-4-(nitrooxy)cyclopentyl]carbonyl}oxy)ethyl N-pentanoyl-N-{[2′-(1H-tetrazol-5-yl)biphenyl-4-yl]methyl}-L-valinate]",–,–,–,−8,−2,8
> 25,"CCOc1nc2cccc(C(=O)OC(C)OC(=O)[C@@H]3C[C@H](OC)[C@@H](O[N+](=O)[O-])C3)c2n1Cc1ccc(-c2ccccc2-c2nnn[nH]2)cc1 (stereo partly drawn) [Example 2, D2, 1-({[(1R,3S,4S)-3-methoxy-4-(nitrooxy)cyclopentyl]carbonyl}oxy)ethyl 2-ethoxy-1-{[2′-(1H-tetrazol-5-yl)biphenyl-4-yl]methyl}-1H-benzimidazole-7-carboxylate]",−19,−12,−5,–,–,–
–,CCCCc1nc(Cl)c(C(=O)O[C@H](C)OC(=O)[C@@H]2C[C@H](OC)[C@@H](O[N+](=O)[O-])C2)n1Cc1ccc(-c2ccccc2-c2nnn[nH]2)cc1 [Example 7],–,–,–,−9,−1,2

# — patent US8293777B2, “Angiotensin II receptor antagonists” (Merck Sharp & Dohme, Corp., priority 2008, dated 2012)
